Test results reported in patent US12228580B2, “Methods of assigning a COVID pathological type based on a cytokine/chemokine panel” (IncellDx, Inc., priority 2020, dated 2025).

Legend:
[1] = tested on: Long Hauler patients suffering from chronic COVID-19; experiment: Treatment of Long Hauler patients for chronic COVID-19: symptoms; assay type: in vivo, human; settings: 300 mg twice a day for 2 weeks
Protocol: (§1) Long Hauler patients suffering from chronic COVID-19 were treated for 2 weeks with 300 mg of Maraviroc (SELZENTRY®) twice a day. […] The results are provided below, which provide patient profiles and LHI (long haul index) as determined using the panel described in the preceding example. LHI is also referred to as “Long Hauler Score” or S1, where S1=(IFN-gamma+IL-2)/CCL4-MIP-1β.

[2] = tested on: plasma cytokines/chemokines of Chronic COVID patients; experiment: 14-plex cytokine/chemokine panel in plasma and long hauler index (S1) of treated Chronic COVID patients; assay type: in vivo, human; settings: 300 mg twice a day for 2 weeks; for S1 (long haul index, LHI; (IFN-gamma+IL-2)/CCL4-MIP-1β): Normals 0.1
Description: Fresh plasma was used for cytokine quantification using a customized 14-plex bead based flow cytometric assay (IncelIKINE, IncellDx, Inc) on a CytoFlex flow cytometer as previously described using the following analytes: ‘TNF-α’, ‘IL-4’, ‘IL-13’, ‘IL-2’, ‘GM-CSF’, ‘sCD40L’, ‘CCL5 (RANTES)’, ‘CCL3 (MIP-1α)’, ‘IL-6’, ‘IL-10’, ‘IFN-γ’, ‘VEGF’, ‘IL-8’, and ‘CCL4 (MIP-1β) (Patterson et al., “CCR5 inhibition in Critical COVID-19 Patients Decreases Inflammatory Cytokines, Increases CD8 T-Cells, and Decreases SARS-CoV2 RNA in Plasma by Day 14”, Int J Infect Dis (2020) doi: 10.1016/j.ijid.2020.10.101). For each patient sample, 25 μL of plasma was used in each well of a 96-well plate. Standard curves with serial 6-point dilutions of antigen were run on each plate for each cytokine. Raw data was analyzed using LegendPlex software (Biolegend, Inc San Diego Calif.). Samples were run in duplicate.
as §1

Question: For Maraviroc, which “symptoms in long haulers” value [1] is on record?
Answer: Its value is “alleviated or completely resolved symptoms”.

Question: And the “CCL5/RANTES in Chronic COVID patients successfully treated” value ([2]; Chronic COVID patients)?
Answer: The value was “Decreased CCL5/RANTES in Chronic COVID patients successfully treated”.

Question: And the “long hauler Indices (LHI, S1)” value ([2]; Long Hauler patients)?
Answer: Its value is “reduced”.

Question: And the “S1 (long haul index, LHI; (IFN-gamma+IL-2)/CCL4-MIP-1β)” value ([2]; patient two, second sample (AB2), first sample AB1 4.0)?
Answer: The value was 0.3.

Question: What about the GM-CSF ([2]; patient two, second sample (AB2), first sample AB1 6.02) of the same substance?
Answer: Its GM-CSF is 15.09 pg/mL.

Question: And the TNF-α ([2]; patient two, second sample (AB2), first sample AB1 7.75)?
Answer: The TNF-α was 17.13 pg/mL.

Question: What about the IL-10 ([2]; patient two, second sample (AB2), first sample AB1 7.90) of the same substance?
Answer: Its IL-10 is <0.61 pg/mL.

Question: And the IL-6 ([2]; patient two, second sample (AB2), first sample AB1 10.88)?
Answer: Its IL-6 is <0.6 pg/mL.

Question: And the IL-4 ([2]; patient two, second sample (AB2), first sample AB1 11.06)?
Answer: Its IL-4 is 4.12 pg/mL.

Question: What about the IL-2 ([2]; patient two, second sample (AB2), first sample AB1 12.57) of the same substance?
Answer: The IL-2 was 2.15 pg/mL.

Question: And the “CCL4 (MIP-1β)” value ([2]; patient two, second sample (AB2), first sample AB1 15.52)?
Answer: Its value is 8.43 pg/mL.

Question: What about the IFN-γ ([2]; patient two, second sample (AB2), first sample AB1 48.78) of the same substance?
Answer: The IFN-γ was <0.92 pg/mL.

Question: And the VEGF ([2]; patient two, second sample (AB2), first sample AB1 60.41)?
Answer: The VEGF was 22.98 pg/mL.

Question: What about the “CCL3 (MIP-1α)” value ([2]; patient two, second sample (AB2), first sample AB1 87.65) of the same substance?
Answer: The value was <1.22 pg/mL.

Question: What about the “CCL5 (RANTES)” value ([2]; patient two, second sample (AB2), first sample AB1 13082.39) of the same substance?
Answer: The value was 12261.36 pg/mL.

Question: What about the sCD40L ([2]; patient two, second sample (AB2), first sample AB1 13488.) of the same substance?
Answer: The sCD40L was 12631. pg/ml.

Question: What about the IL-13 ([2]; patient two, second sample (AB2), first sample AB1 <3.07) of the same substance?
Answer: Its IL-13 is 4.35 pg/mL.

Question: And the IL-8 ([2]; patient two, second sample (AB2), first sample AB1 <15.74)?
Answer: Its IL-8 is 18.37 pg/mL.

Question: And the “CCL4 (MIP-1β)” value ([2]; unlabelled patient, second line, first line 3.62)?
Answer: The value was 9.79 pg/mL.

Question: And the IL-13 ([2]; unlabelled patient, second line, first line 5.56)?
Answer: The IL-13 was 4.22 pg/mL.

Question: And the GM-CSF ([2]; unlabelled patient, second line, first line 10.40)?
Answer: The GM-CSF was 9.07 pg/mL.

Question: What about the “S1 (long haul index, LHI; (IFN-gamma+IL-2)/CCL4-MIP-1β)” value ([2]; unlabelled patient, second line, first line 11.4) of the same substance?
Answer: The value was 1.3.

Question: What about the TNF-α ([2]; unlabelled patient, second line, first line 17.86) of the same substance?
Answer: The TNF-α was 17.50 pg/mL.

Question: And the IL-2 ([2]; unlabelled patient, second line, first line 33.94)?
Answer: The IL-2 was 4.89 pg/mL.

Question: And the VEGF ([2]; unlabelled patient, second line, first line 39.00)?
Answer: The VEGF was 31.62 pg/mL.

Question: And the sCD40L ([2]; unlabelled patient, second line, first line 8980.)?
Answer: Its sCD40L is 41374. pg/ml.

Question: What about the “CCL5 (RANTES)” value ([2]; unlabelled patient, second line, first line 14334.86) of the same substance?
Answer: Its value is 10011.91 pg/mL.

Question: And the IL-10 ([2]; unlabelled patient, second line, first line <1.20)?
Answer: Its IL-10 is <2.49 pg/mL.

Question: And the IL-8 ([2]; unlabelled patient, second line, first line <3.82)?
Answer: The IL-8 was <9.98 pg/mL.

Question: And the IL-6 ([2]; unlabelled patient, second line, first line <4.66)?
Answer: The IL-6 was <3.60 pg/mL.

Question: What about the IL-4 ([2]; unlabelled patient, second line, first line <5.02) of the same substance?
Answer: The IL-4 was <1.22 pg/mL.

Question: And the IFN-γ ([2]; unlabelled patient, second line, first line <7.30)?
Answer: The IFN-γ was <7.77 pg/mL.

Question: And the “CCL3 (MIP-1α)” value ([2]; unlabelled patient, second line, first line <34.82)?
Answer: Its value is <45.08 pg/mL.
